Target: T1, recombinant mouse NEU3 (Mus musculus, UniProt Q9JMH7)
T1 construct: c-Myc; host or cells: HEK 293 Freestyle cells
T1 sequence (Q9JMH7 1-418): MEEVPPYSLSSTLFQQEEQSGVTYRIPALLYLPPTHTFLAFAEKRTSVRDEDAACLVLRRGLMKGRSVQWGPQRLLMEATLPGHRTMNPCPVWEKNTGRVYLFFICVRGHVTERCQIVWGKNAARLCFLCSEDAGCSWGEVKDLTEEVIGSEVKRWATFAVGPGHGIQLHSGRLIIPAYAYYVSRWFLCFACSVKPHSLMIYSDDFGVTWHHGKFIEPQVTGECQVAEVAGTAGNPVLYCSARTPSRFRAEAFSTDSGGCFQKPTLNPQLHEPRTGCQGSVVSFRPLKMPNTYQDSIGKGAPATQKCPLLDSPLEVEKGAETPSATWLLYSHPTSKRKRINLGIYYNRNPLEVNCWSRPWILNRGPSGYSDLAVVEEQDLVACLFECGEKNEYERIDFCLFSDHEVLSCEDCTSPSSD
Assay: Recombinant mouse NEU3-catalyzed TGF-β1 activation (TGF-β1 ELISA)
Type: biochemical
Details: recombinant mouse NEU3, FIGS. 7A-B
Protocol: To determine if selected NEU3 inhibitors could be used in mice to inhibit mouse NEU3, we made recombinant mouse NEU3 in HEK 293 Freestyle human embryonic kidney cells. HEK 293 Freestyle cells (Life Technologies, Grand Island, NY) were cultured in FreeStyle 293 media (12338-018, Life Technologies, Grand Island, NY). 1×10^5 cells were mixed with 2 μg of 100 μg/ml of murine Neu3 expression clone (MR223297, Origene), in 100 μl PBS (GE Lifesciences), and were transfected by electroporation using a 4D-Nucelofactor System (Lonza) following the manufacturer's protocol. The transfected cells were kept at room temperature for 15 minutes for recovery, after which the cells were cultured in 25 ml Freestyle 293 media with 250 μg/ml of G418 antibiotic (345812, Calbiochem EMD Chemicals Inc. San Diego, CA) to select for transfected cells, in a 200 ml cell culture flask (431464U, Corning) at 37° C. humidified with 5% CO2. After 10 days, the cells were isolated, lysed, and c-Myc tagged recombinant mouse NEU3 protein was purified using a Myc-Trap A kit (ytak-20, Chromotek, Hauppauge, NY) following the manufacturer's protocol. The eluted protein was stored in 50 μl of 10% glycerol, 100 mM glycine, 25 mM Tris-HCl pH 7.3.
To determine if NEU3 inhibitors would be effective in mice, NEU3 inhibitors were tested against recombinant mouse NEU3. […]

## CC(=O)c1ccccn1 [Compound 5, 2-acetylpyridine]
  inhibition of NEU3's activation of TGF-β1: inhibited

## COC(=O)c1ccccn1 [Compound 6, methyl picolinate]
  inhibition of NEU3's activation of TGF-β1: inhibited

From US12616674B2, “Anti-fibrotic NEU3 inhibitor compounds and methods of use” (The Texas A&M University System, priority 2019, dated 2026)
